According to ChEMBL document CHEMBL5291721, “A preclinical secondary pharmacology resource illuminates target-adverse drug reaction associations of marketed drugs” (Nat Commun, 2023):

Assays:
[1] = target: T1, Gamma-aminobutyric acid receptor subunit alpha-1 (Rattus norvegicus, UniProt P62813)
[2] = target: T2, Alpha-1A adrenergic receptor (Homo sapiens, UniProt P35348); format: functional, cell-based
T2 sequence (P35348 whole entry): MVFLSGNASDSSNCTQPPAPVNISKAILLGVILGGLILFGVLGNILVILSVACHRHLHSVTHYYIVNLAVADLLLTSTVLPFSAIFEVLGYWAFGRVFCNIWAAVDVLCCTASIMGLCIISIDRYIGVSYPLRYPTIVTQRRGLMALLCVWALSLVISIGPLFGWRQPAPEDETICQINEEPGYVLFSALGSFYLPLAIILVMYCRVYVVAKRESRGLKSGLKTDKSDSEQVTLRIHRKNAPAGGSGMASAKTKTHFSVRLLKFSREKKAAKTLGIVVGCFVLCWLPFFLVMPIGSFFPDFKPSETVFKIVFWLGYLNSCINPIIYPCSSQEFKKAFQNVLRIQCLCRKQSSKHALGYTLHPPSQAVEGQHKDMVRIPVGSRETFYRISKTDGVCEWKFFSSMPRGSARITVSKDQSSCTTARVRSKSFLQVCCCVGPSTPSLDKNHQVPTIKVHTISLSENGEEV

[3] = target: T3, Muscarinic acetylcholine receptor M1 (Homo sapiens, UniProt P11229); format: functional, cell-based
T3 sequence (P11229 whole entry): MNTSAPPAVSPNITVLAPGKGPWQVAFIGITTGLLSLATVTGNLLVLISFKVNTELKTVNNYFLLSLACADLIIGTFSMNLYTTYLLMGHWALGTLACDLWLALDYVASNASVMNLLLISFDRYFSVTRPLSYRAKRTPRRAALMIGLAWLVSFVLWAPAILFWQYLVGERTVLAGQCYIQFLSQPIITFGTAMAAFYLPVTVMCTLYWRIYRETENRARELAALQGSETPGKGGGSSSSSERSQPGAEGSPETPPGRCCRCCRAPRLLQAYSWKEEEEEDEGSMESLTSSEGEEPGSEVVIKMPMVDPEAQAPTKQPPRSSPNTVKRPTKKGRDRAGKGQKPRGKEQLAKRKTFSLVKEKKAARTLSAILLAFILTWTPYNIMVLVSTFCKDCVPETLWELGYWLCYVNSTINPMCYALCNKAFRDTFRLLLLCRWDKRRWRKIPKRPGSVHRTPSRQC

[4] = target: T1, Gamma-aminobutyric acid receptor subunit alpha-1; remark: listed apart in the source
[5] = target: Delta-type opioid receptor (Homo sapiens, UniProt P41143)
[6] = target: Neuronal acetylcholine receptor subunit alpha-4 (Homo sapiens, UniProt P43681)
[7] = target: T4, Amine oxidase [flavin-containing] A (Homo sapiens, UniProt P21397); format: functional
T4 sequence (P21397 whole entry): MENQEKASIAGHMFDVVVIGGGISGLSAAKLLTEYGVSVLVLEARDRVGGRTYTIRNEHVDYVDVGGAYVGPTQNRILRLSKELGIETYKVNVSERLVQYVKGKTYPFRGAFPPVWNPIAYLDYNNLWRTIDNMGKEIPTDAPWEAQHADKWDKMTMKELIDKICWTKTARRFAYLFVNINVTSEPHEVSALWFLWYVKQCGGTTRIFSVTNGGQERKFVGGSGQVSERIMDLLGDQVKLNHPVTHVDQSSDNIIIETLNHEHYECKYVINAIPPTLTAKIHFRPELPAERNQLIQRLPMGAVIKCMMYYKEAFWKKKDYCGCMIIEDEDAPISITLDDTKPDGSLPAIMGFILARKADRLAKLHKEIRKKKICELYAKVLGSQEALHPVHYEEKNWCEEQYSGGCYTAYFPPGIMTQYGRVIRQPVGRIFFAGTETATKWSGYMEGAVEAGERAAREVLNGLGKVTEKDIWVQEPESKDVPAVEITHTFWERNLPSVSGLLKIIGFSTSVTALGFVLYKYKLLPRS

[8] = target: T2, Alpha-1A adrenergic receptor; format: functional, cell-based; remark: listed apart in the source
[9] = target: T5, B2 bradykinin receptor (Homo sapiens, UniProt P30411)
T5 sequence (P30411 whole entry): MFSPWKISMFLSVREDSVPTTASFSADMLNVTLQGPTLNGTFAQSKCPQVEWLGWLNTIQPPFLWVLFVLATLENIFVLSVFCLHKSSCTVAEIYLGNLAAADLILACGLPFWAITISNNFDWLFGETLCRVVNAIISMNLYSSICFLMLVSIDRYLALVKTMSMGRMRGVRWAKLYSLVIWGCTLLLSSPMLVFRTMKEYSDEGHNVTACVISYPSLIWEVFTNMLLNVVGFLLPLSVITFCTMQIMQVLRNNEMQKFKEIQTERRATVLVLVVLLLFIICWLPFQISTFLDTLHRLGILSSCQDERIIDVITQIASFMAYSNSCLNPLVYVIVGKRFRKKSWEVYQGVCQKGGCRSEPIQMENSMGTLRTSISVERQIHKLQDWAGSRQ

[10] = target: Cannabinoid receptor 1 (Homo sapiens, UniProt P21554)
[11] = target: Beta-2 adrenergic receptor (Homo sapiens, UniProt P07550)
[12] = target: T6, Endothelin-1 receptor (Homo sapiens, UniProt P25101)
T6 sequence (P25101 whole entry): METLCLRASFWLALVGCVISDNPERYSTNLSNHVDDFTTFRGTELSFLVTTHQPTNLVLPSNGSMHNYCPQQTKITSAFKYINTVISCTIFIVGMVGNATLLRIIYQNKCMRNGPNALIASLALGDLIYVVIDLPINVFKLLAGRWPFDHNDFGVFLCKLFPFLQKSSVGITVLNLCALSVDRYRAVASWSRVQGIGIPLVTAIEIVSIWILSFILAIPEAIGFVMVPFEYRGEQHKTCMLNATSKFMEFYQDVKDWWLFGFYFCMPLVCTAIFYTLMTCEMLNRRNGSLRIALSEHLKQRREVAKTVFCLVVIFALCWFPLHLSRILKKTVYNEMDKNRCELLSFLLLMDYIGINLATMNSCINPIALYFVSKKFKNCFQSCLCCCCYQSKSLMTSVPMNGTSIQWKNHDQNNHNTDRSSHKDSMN

[13] = target: Mu-type opioid receptor (Homo sapiens, UniProt P35372)
Note: assay procedure not described here.

Chain of Neuronal acetylcholine receptor subunit alpha-4 (P43681 whole entry): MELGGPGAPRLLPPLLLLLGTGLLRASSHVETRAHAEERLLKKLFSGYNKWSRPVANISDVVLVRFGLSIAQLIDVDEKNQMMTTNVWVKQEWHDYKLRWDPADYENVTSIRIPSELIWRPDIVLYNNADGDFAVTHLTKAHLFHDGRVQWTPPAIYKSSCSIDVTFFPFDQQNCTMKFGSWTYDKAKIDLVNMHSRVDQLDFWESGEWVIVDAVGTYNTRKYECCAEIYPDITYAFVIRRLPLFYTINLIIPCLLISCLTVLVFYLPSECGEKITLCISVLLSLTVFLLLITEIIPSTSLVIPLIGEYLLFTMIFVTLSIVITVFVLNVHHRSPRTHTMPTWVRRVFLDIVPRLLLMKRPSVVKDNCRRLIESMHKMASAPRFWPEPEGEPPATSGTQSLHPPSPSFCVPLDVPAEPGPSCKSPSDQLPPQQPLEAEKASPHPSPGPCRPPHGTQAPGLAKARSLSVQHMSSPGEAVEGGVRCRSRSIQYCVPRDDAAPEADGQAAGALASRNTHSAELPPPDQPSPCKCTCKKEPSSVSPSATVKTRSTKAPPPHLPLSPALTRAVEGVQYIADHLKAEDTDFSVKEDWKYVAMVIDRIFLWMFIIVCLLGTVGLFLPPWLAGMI
Chain of Mu-type opioid receptor (P35372 whole entry): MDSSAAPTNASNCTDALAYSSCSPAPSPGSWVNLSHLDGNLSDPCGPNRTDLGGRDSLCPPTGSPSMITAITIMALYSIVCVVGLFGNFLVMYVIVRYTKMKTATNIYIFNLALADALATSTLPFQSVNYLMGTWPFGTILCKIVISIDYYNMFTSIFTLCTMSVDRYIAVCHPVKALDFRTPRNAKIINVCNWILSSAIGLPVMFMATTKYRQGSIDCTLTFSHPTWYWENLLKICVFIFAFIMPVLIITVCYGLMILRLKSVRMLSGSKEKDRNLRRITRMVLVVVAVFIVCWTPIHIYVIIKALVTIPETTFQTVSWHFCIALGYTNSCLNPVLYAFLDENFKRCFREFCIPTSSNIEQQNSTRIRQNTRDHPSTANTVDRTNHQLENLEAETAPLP
Chain of Cannabinoid receptor 1 (P21554 whole entry): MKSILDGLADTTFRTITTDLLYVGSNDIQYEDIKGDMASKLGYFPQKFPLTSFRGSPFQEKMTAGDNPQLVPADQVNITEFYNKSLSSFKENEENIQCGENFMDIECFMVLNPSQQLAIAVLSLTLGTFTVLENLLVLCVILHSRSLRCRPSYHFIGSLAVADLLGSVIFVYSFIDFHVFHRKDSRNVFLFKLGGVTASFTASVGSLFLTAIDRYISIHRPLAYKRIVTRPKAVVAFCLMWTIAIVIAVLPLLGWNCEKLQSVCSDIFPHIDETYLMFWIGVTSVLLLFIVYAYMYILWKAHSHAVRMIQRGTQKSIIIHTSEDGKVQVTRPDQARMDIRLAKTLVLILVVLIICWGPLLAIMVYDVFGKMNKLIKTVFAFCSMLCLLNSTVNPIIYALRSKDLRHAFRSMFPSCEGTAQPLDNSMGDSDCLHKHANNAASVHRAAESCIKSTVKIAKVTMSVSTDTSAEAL
Chain of Beta-2 adrenergic receptor (P07550 whole entry): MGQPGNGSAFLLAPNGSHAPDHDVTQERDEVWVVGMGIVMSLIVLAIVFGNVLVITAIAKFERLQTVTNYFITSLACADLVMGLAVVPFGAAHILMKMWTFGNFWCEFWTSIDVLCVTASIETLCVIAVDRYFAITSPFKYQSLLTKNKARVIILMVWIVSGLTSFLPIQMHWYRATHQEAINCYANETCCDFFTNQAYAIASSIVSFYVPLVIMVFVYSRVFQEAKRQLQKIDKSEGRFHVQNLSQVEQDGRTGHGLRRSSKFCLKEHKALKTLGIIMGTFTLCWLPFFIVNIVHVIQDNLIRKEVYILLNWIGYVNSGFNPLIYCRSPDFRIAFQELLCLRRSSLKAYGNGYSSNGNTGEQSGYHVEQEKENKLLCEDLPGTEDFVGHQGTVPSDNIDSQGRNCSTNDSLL
T1 sequence (P62813 whole entry): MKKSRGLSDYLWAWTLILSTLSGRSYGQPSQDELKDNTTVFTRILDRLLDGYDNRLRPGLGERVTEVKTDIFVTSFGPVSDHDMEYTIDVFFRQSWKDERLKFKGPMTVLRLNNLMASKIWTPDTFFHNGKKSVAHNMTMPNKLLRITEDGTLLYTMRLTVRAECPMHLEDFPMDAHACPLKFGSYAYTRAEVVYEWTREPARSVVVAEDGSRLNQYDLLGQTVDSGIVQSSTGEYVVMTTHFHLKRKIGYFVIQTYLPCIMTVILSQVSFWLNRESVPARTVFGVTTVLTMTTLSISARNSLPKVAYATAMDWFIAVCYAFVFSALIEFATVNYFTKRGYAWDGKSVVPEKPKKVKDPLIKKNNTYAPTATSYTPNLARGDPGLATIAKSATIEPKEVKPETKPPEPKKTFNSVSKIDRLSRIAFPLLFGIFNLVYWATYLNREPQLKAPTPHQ
Chain of Delta-type opioid receptor (P41143 whole entry): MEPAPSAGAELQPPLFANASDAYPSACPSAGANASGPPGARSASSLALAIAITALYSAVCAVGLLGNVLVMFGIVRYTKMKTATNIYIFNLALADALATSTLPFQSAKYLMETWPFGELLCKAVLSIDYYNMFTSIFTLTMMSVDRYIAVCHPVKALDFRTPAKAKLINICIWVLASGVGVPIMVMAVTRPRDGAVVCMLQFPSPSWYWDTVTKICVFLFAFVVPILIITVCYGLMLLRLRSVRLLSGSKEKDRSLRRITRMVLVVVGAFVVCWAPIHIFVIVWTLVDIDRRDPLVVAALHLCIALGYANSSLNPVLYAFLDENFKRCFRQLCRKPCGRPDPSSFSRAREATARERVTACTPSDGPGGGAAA

SMILES	AC50 [1]	AC50 [2]	AC50 [3]	also measured
CC[C@H](C)C[C@H](C)CCCCCCCCC(=O)N[C@H]1C[C@@H](O)[C@@H](NCCN)NC(=O)[C@@H]2[C@@H](O)CCN2C(=O)[C@H]([C@H](O)CCN)NC(=O)[C@H]([C@H](O)[C@@H](O)c2ccc(O)cc2)NC(=O)[C@@H]2C[C@@H](O)CN2C(=O)[C@H]([C@@H](C)O)NC1=O [CASPOFUNGIN]	> 30 µM	13 µM	15.7 µM	–
CC(=O)O[C@]1(C(C)=O)CC[C@H]2[C@@H]3C=C(C)C4=CC(=O)CC[C@@H]4[C@H]3CC[C@@]21C [NOMEGESTROL ACETATE]	4.4 µM	> 10 µM	> 10 µM	AC50 [4]: > 30 µM; AC50 [5]: > 30 µM; AC50 [6]: > 30 µM; AC50 [7]: > 30 µM; AC50 [8]: > 30 µM
CN1CCC(=C2c3ccccc3Sc3ccccc32)CC1 [PIMETHIXENE]	> 30 µM	0.121 µM	0.0216 µM	–
C/C=C/C/C=C/CCC(=O)[C@H]1O[C@H]1C(N)=O [CERULENIN]	> 30 µM	> 30 µM	> 30 µM	–
CC[C@H](c1ccc(O)cc1)[C@@H](CC)c1ccc(O)cc1 [HEXESTROL]	> 30 µM	> 3 µM	> 3 µM	–
O=C1/C(=C2\Nc3ccc(S(=O)(=O)O)cc3C2=O)Nc2ccc(S(=O)(=O)O)cc21 [INDIGOTINDISULFONATE]	> 30 µM	> 30 µM	> 30 µM	–
COc1cc2nc(N3CCN(C(=O)C4CCCO4)CC3)nc(N)c2cc1OC (stereo not drawn) [TERAZOSIN]	> 30 µM	–	–	AC50 [9]: > 30 µM; AC50 [4]: > 10 µM; AC50 [5]: > 30 µM; AC50 [10]: > 10 µM; AC50 [6]: > 10 µM; AC50 [11]: > 10 µM; AC50 [7]: > 10 µM; AC50 [12]: > 30 µM; AC50 [13]: 3 µM
FC(F)(F)c1ccc(CNc2ccc(Cc3c[nH]c4ncc(Cl)cc34)cn2)cn1 [PEXIDARTINIB]	> 30 µM	1.8 µM	0.389 µM	–
CCc1nc(C(N)=O)c(Nc2ccc(N3CCC(N4CCN(C)CC4)CC3)c(OC)c2)nc1NC1CCOCC1 [GILTERITINIB]	> 30 µM	> 0.3 µM	> 0.3 µM	–
CC(C)C[C@H](NC(=O)CNC(=O)c1cc(Cl)ccc1Cl)B(O)O [IXAZOMIB]	> 30 µM	> 30 µM	> 30 µM	–
N#Cc1ccc2c(c1)N(CCCN1CCC(O)CC1)c1ccccc1S2 [PERICIAZINE]	29.8 µM	–	5.58 µM	–
O=C(O)c1cc(/N=N/c2ccc(O)c(C(=O)O)c2)ccc1O [OLSALAZINE]	> 30 µM	> 30 µM	> 30 µM	–
CN(C)[C@@H]1C(O)=C(C(N)=O)C(=O)[C@@]2(O)C(O)=C3C(=O)c4c(O)ccc(Cl)c4[C@@](C)(O)[C@H]3C[C@@H]12 [CHLORTETRACYCLINE]	> 30 µM	> 30 µM	–	–
C=CCN1CC[C@]23CCCC[C@H]2[C@H]1Cc1ccc(O)cc13 [LEVALLORPHAN]	> 30 µM	> 30 µM	> 30 µM	–
CC(C)(O)CNc1nc(Nc2ccnc(C(F)(F)F)c2)nc(-c2cccc(C(F)(F)F)n2)n1 [ENASIDENIB]	> 30 µM	20.3 µM	23.9 µM	–
CCCN(CCC)C(=O)Cc1c(-c2ccc(Cl)cc2)nc2ccc(Cl)cn12 [ALPIDEM]	0.02 µM	> 10 µM	> 10 µM	AC50 [9]: > 30 µM; AC50 [4]: > 30 µM; AC50 [5]: > 30 µM; AC50 [10]: > 30 µM; AC50 [6]: > 30 µM; AC50 [11]: > 30 µM; AC50 [7]: > 30 µM; AC50 [12]: > 10 µM; AC50 [13]: > 10 µM
CNC(=O)Oc1cccc2ccccc12 [CARBARIL]	> 30 µM	> 30 µM	> 30 µM	–
CN1C(C(=O)Nc2ccccn2)=C(O)c2ccccc2S1(=O)=O [PIROXICAM]	> 30 µM	–	–	AC50 [9]: > 10 µM; AC50 [4]: > 10 µM; AC50 [5]: > 30 µM; AC50 [10]: > 10 µM; AC50 [6]: > 10 µM; AC50 [11]: > 10 µM; AC50 [7]: > 30 µM; AC50 [13]: > 30 µM
Nc1ccc(C(=O)Oc2ccccc2)c(O)c1 [PHENYL AMINOSALICYLATE]	> 30 µM	23 µM	17.1 µM	–
CCCC(CCC)C(=O)O [VALPROIC ACID]	> 30 µM	–	–	AC50 [9]: > 30 µM; AC50 [4]: > 10 µM; AC50 [5]: > 30 µM; AC50 [10]: > 10 µM; AC50 [6]: > 10 µM; AC50 [11]: > 10 µM; AC50 [7]: > 10 µM; AC50 [12]: > 30 µM; AC50 [13]: > 30 µM
CCn1cc(C(=O)O)c(=O)c2cc3c(cc21)OCO3 [OXOLINIC ACID]	> 30 µM	> 30 µM	> 30 µM	–
OC[C@H]1O[C@@H](c2ccc(F)c(Cc3cc4ccccc4s3)c2)[C@H](O)[C@@H](O)[C@@H]1O [IPRAGLIFLOZIN]	> 30 µM	22.2 µM	19.8 µM	–
OC[C@H]1O[C@@H](c2ccc(Cl)c(Cc3ccc(O[C@H]4CCOC4)cc3)c2)[C@H](O)[C@@H](O)[C@@H]1O [EMPAGLIFLOZIN]	> 30 µM	> 30 µM	> 30 µM	–
OC[C@H]1O[C@@](CO)(O[C@H]2O[C@H](CO)[C@@H](O)[C@H](O)[C@H]2O)[C@@H](O)[C@@H]1O [SUCROSE]	> 30 µM	–	–	AC50 [9]: > 30 µM; AC50 [4]: > 30 µM; AC50 [5]: > 30 µM; AC50 [6]: > 30 µM; AC50 [7]: > 30 µM; AC50 [12]: > 30 µM; AC50 [8]: > 30 µM
CC[C@H]1OC(=O)[C@H](C)C(=O)[C@H](C)[C@@H](O[C@@H]2O[C@H](C)C[C@H](N(C)C)[C@H]2O)[C@](C)(OC)C[C@@H](C)C(=O)[C@H](C)[C@H]2N(CCCCn3cnc(-c4cccnc4)c3)C(=O)O[C@]12C [TELITHROMYCIN]	> 30 µM	> 30 µM	> 30 µM	–
N[C@@H](CO)C(=O)O [SERINE]	> 30 µM	> 30 µM	> 30 µM	–
CC(=O)Oc1cc(C(F)(F)F)ccc1C(=O)O [TRIFLUSAL]	> 30 µM	> 30 µM	> 30 µM	–
